Assay results as given in BindingDB's records for doi:10.1016/S0968-0896(02)00561-8 (Purdue University, 2003).
pKi: −log10 of the molar value. Where “and” joins values, the source holds several entries; their conditions need not be identical. Equal values may be shown once. Where a name gives a salt, the structure may show the parent alone.

Assays:
[1] = biological target: D(1A) dopamine receptor (Rattus norvegicus, UniProt P18901)
[2] = biological target: D(3) dopamine receptor (Rattus norvegicus, UniProt P19020)
Sequence of D(3) dopamine receptor (P19020 whole entry): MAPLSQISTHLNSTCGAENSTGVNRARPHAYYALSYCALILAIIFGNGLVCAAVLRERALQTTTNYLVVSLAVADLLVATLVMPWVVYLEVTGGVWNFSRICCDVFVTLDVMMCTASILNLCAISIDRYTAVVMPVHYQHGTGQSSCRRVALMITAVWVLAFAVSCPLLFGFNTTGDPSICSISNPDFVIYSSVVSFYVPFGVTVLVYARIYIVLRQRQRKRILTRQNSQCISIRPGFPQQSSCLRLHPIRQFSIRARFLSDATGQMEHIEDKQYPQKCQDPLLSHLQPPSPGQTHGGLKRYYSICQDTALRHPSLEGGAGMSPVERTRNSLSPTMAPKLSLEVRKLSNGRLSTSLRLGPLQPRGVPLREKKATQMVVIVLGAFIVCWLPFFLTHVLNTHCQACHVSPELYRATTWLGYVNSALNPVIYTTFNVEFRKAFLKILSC

[3] = biological target: T1, D(4) dopamine receptor (Rattus norvegicus, UniProt P30729)
T1 sequence (P30729 whole entry): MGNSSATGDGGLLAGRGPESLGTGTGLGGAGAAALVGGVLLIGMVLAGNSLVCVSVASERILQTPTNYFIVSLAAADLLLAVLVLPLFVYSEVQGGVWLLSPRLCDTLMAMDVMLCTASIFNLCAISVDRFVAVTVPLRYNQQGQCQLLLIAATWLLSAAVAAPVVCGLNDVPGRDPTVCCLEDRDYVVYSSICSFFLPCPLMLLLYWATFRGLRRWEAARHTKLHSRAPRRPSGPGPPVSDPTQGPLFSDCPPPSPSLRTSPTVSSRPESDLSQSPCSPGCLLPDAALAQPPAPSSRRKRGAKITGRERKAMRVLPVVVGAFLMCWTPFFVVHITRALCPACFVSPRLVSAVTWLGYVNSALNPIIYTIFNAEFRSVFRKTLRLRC

[4] = biological target: D(2) dopamine receptor (Rattus norvegicus, UniProt P61169)
Sequence of D(2) dopamine receptor (P61169 whole entry): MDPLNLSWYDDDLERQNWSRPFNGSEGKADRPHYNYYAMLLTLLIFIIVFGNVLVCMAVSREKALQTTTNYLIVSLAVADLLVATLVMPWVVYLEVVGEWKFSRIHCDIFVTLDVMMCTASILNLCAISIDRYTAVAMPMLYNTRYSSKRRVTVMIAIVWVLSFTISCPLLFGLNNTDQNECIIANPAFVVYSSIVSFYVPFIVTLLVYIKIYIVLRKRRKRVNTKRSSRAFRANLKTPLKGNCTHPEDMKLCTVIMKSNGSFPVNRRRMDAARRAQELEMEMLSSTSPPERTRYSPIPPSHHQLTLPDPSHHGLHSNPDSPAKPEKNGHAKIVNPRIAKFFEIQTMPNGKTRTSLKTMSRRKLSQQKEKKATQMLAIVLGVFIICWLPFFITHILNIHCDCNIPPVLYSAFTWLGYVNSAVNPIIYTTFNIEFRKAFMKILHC

Sequence of D(1A) dopamine receptor (P18901 whole entry): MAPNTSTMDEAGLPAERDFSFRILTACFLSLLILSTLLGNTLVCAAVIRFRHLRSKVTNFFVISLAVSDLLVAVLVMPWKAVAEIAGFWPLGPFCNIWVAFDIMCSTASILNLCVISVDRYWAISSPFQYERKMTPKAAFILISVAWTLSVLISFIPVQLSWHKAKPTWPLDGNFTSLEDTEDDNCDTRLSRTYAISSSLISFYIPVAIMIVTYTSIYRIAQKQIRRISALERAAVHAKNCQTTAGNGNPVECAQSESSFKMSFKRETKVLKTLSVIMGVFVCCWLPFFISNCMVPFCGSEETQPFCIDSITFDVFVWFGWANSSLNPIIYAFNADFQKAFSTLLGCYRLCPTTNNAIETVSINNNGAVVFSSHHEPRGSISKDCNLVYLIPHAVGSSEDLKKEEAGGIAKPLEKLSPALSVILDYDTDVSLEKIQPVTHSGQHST

| pKi [2] | pKi [3] | pKi [4] | SMILES | pKi [1] |
| --- | --- | --- | --- | --- |
| 8.60 | 7.55 | 7.64 and 7.68 | CCCN1Cc2c(C)ccc3c2[C@@H](C1)c1ccc(O)c(O)c1C3 (racemic) [Dinapsoline,(+/-)-4-Methyl-N-propyl] | 6.70 and 5.85 |
| 7.55 | 6.66 | 6.72 and 7.24 | Cc1ccc2c3c1Cc1c(ccc(O)c1O)[C@@H]3CNC2 (racemic) [Dinapsoline,(+/-)-6-Methyl] |  |
| 7.85 | 7.32 |  | C=CCN1Cc2cccc3c2[C@@H](C1)c1ccc(O)c(O)c1C3 (racemic) [Dinapsoline,(+/-)-N-allyl] |  |
| 7.74 | 7.08 | 7.44 and 7.72 | Cc1ccc2c3c1CNC[C@H]3c1ccc(O)c(O)c1C2 (racemic) [Dinapsoline,(+/-)-4-Methyl] |  |
| 8.55 | 7.77 | 7.41 and 7.22 | CCCN1Cc2cccc3c2[C@@H](C1)c1ccc(O)c(O)c1C3 (racemic) [(+/-)-2-propyldinapsoline hydrobromide] | 6.77 and 5.92 and 6.18 |
| 8.37 | 7.20 | 7.44 and 7.31 | C=CCN1Cc2c(C)ccc3c2[C@@H](C1)c1ccc(O)c(O)c1C3 (racemic) [Dinapsoline,(+/-)-4-Methyl-N-allyl] | 7.25 and 6.85 |

More lines, now with the values behind:

| SMILES | pKi [2] | pKi [3] | pKi [4] | pKi [1] |
| --- | --- | --- | --- | --- |
| CCCN1Cc2c(C)cccc2[C@H]2c3cc(O)c(O)cc3CC[C@@H]21 [Dihydrexidine, 4-methyl-N-propyl] | 8.68 |  |  | 7.63 |
| Oc1ccc2c(c1O)Cc1cccc3c1[C@H]2CNC3 [Dinapsoline, (R)(+)] |  | 7.22 |  |  |
| Cc1cccc2c1CN[C@H]1CCc3cc(O)c(O)cc3[C@H]21 [Dihydrexidine, 4-methyl] | 7.07 |  | 6.17 | 8.18 and 7.74 |
| CCCN1Cc2ccccc2[C@H]2c3cc(O)c(O)cc3CC[C@@H]21 [Dihydrexidine, N-propyl] | 8.06 |  |  | 6.74 |
